These results are taken from patent publication US20050244819A1, “Assay system for screening protease inhibitors” (priority 2004, published 2005).

Data set [1] addresses T1, HIV protease precursor TF-PR^WT (Human immunodeficiency virus type 1 group M subtype B, UniProt P12497, L434F).
T1 construct: Met-Gly (my reading of primer TF-F) + native transframe region (TFP 8 aa + p6pol 48 aa = 56 aa directly upstream of the protease in Gag-Pol); removed by autoprocessing (N, cleaved yes); expressed in transfected cells; host or cells: E. coli DH5α bearing plasmid pTF-PR^WT (pBAD, arabinose-induced)
The experiment in a line: cell-based. Set-up: species or system HIV-1. The procedure: (§1) Stock solutions of the FDA-approved HIV protease inhibitors were prepared by solubilizing the drugs in 100% dimethyl sulfoxide (DMSO) at 100 mM. A single colony of the cells bearing the respective plasmid, namely pTF-PR^WT or pTF-PR^mutant, was inoculated into 2 ml of Luria-Bertani (LB) medium with 100 μg of ampicillin/ml and grown overnight at 37° C. The culture was diluted 100-fold with fresh Luria-Bertani medium containing 100 μg of ampicillin/ml and incubated at 37° C. for 2 h until the optical density at 630 nm (OD630) of the cells reached 0.6. The cells were then induced for protein expression with 0.2% arabinose and simultaneously treated with either HIV protease inhibitors dissolved in 2% DMSO at the indicated concentrations or 2% DMSO alone as the negative control. After incubation for an additional 3 h at 30° C., the cells were collected for Western blot analysis of proteins.

Data set [2] addresses T2, D30N HIV protease (Human immunodeficiency virus type 1 group M subtype B, UniProt P12497, D518N).
T2 construct: used to replace the wild-type HIV protease domain in the two-cistron expression construct; Met-Gly (my reading of primer TF-F) + native transframe region (56 aa directly upstream of the protease in Gag-Pol) (N); Lys-Glu-Glu (my translation of primer PR-R: Shine-Dalgarno in frame before the stop codon) (C); expressed in transfected cells; host or cells: E. coli bearing plasmid pTF-PR^D30N
In words: cell-based. Set-up: species or system HIV-1. The procedure: (§2) Cell-Based β-galactosidase Activity Assay. Cell-based β-galactosidase activity assays were performed basically as described in Example 4. E. coli cells bearing each of the expression plasmids were grown as described, except that after incubation at 37° C. for 2 h to an OD630 of 0.6, the cells were transferred in triplicate sets to the wells of 96-well microplates. The cells were subjected to simultaneous induction for recombinant protein expression as well as drug treatment with HIV protease inhibitors at the indicated concentrations in 2% DMSO. For the screening of the compound library generated by the amide-forming reaction (see Example 5), DMF was used instead of DMSO. […] After the OD630 of the cells was determined by using an Ultramark microplate imaging system (Bio-Rad, Hercules, Calif.), ONPG was added at a final concentration of 200 μM to start the enzymatic reactions at 37° C. Changes in the OD415, indicating the production of ortho-nitrophenol, were continuously monitored with the Ultramark microplate imaging system. […] The β-galactosidase activity was determined as the number of micromoles of ortho-nitrophenol produced per minute at 37° C. […]

Data set [3] concerns the target wild-type HIV protease (Human immunodeficiency virus type 1 group M subtype B, UniProt P12497). In words: cell-based. The procedure: as §1
Cell-Based β-galactosidase Activity Assay. Cell-based β-galactosidase activity assays were performed basically as described in Example 4. E. coli cells bearing each of the expression plasmids were grown as described, except that after incubation at 37° C. for 2 h to an OD630 of 0.6, the cells were transferred in triplicate sets to the wells of 96-well microplates. The cells were subjected to simultaneous induction for recombinant protein expression as well as drug treatment with HIV protease inhibitors at the indicated concentrations in 2% DMSO. For the screening of the compound library generated by the amide-forming reaction (see Example 5), DMF was used instead of DMSO. After incubation for an additional 3 h at 30° C., the cells were made permeable for the entry of the β-galactosidase substrate, (ortho-nitrophenyl-β-D-galactopyranoside (ONPG)), by diluting the cells in assay buffer (10 mM NaP, pH 7.3, 10 mM NaCl, 1 mM MgSO4, 5 mM β-mercaptoethanol) that contained 50 μg of polymyxin B sulfate/ml and 2%Triton X-100 (Schupp et al., BioTechniques 19:18-20 (1995)). The cells were then incubated for 5 min at room temperature in 96-well microplates. After the OD630 of the cells was determined by using an Ultramark microplate imaging system (Bio-Rad, Hercules, Calif.), ONPG was added at a final concentration of 200 μM to start the enzymatic reactions at 37° C. Changes in the OD415, indicating the production of ortho-nitrophenol, were continuously monitored with the Ultramark microplate imaging system. The linear portion of the progression curve was used to determine the initial velocity with MATLAB (The MathWorks Inc., Natick, Mass.). The difference in OD415 (ΔA) was converted to the increase in product concentration (ΔC) by using the equation ΔA=ε(ΔC)(L), where L is the light path of 0.4 cm and the extinction coefficient (ε) of ortho-nitrophenol was 3,500 M^−1 cm^−1 under the assay conditions. The β-galactosidase activity was determined as the number of micromoles of ortho-nitrophenol produced per minute at 37° C. The β-galactosidase activity was then normalized against the amount of total cellular proteins, which was estimated by assuming that an OD630 unit corresponds to 1.4×10^9 cells and that every 10^9 cells yield approximately 150 μg of proteins (Pardee et al., J. Mol. Biol. 1:165-68 (1959)).
ββ-galactosidase activity assays were performed as described in Example 8. After drug treatment for 3 h, the cells were processed for detection of β-galactosidase activity of whole cells in 96-well microplates as described. Cells coexpressing TF-PR^WT and β-GalPR were treated with HIV protease inhibitors at the concentrations between 0 and 400 μM. β-galactosidase activities (micromoles per minute per milligram of total protein) in the treated E. coli cells were determined.
The β-galactosidase activity detected in E. coli coexpressing TF-PR^WT and β-Gal^PR in the absence of HIV protease inhibitors was referred to as 0% inhibition.

For data set [4], the target named is T3, I84V HIV protease (Human immunodeficiency virus type 1 group M subtype B, UniProt P12497, I572V).
T3 construct: used to replace the wild-type HIV protease domain in the two-cistron system to construct the plasmid pTF-PR^I84V; Met-Gly (my reading of primer TF-F) + native transframe region (56 aa directly upstream of the protease in Gag-Pol) (N); Lys-Glu-Glu (my translation of primer PR-R: Shine-Dalgarno in frame before the stop codon) (C); expressed in transfected cells; host or cells: E. coli bearing plasmid pTF-PR^I84V
In words: E. coli-based assay system: β-galactosidase activity, cells co-expressing TF-PR^I84V and β-Gal^PR. In kind it is cell-based, HIV-1. Here is the method:
as §2

Data set [5] has as its system Wild-type HIV. The note with it: concentration inhibiting 90% of mammalian cell death induced by HIV infection; Patick et al.; read-out: EC90 (μM) from standard antiviral assay with: Wild-type HIV; cited from earlier work.
In data set [6] the test system is D30N HIV strain. The note with it: concentration inhibiting 90% of mammalian cell death induced by HIV infection; Patick et al.; read-out: EC90 (μM) from standard antiviral assay with: D30N HIV strain; cited from earlier work.

Turning to `CC(C)CN(C[C@@H](O)[C@H](Cc1ccccc1)NC(=O)O[C@H]1CCOC1)S(=O)(=O)c1ccc(N)cc1` [APV, amprenavir], the IC50 is 1.6 to 8 µM in data set [1], 35.9 ± 17.7 µM in data set [2], 53.4 ± 17.4 µM in data set [3] and 280 ± 39 µM in data set [4].

In the case of `CC(C)(C)NC(=O)[C@@H]1CN(Cc2cccnc2)CCN1C[C@@H](O)C[C@@H](Cc1ccccc1)C(=O)N[C@H]1c2ccccc2C[C@H]1O` [IDV, indinavir], the EC90 is 0.06 µM in data set [5] and 0.01 µM in data set [6].

Regarding `Cc1c(O)cccc1C(=O)N[C@@H](CSc1ccccc1)[C@H](O)CN1C[C@H]2CCCC[C@H]2C[C@H]1C(=O)NC(C)(C)C` [NFV, nelfinavir], the 50% inhibitory concentration (IC50) in data set [1] is 1.6 to 8 µM; in data set [2], above 400 µM; in data set [3], 48.4 ± 4.8 µM. For the same molecule, the inhibition at 400 µM in data set [3] (read-out: % inhibition against the wild-type HIV protease) is 75%. Moreover, the figures for the EC90 in data set [5] and in data set [6] were 0.03 µM and 0.18 µM, respectively.

Consider `CC(C)c1nc(CN(C)C(=O)N[C@H](C(=O)N[C@@H](Cc2ccccc2)C[C@H](O)[C@H](Cc2ccccc2)NC(=O)OCc2cncs2)C(C)C)cs1` [RTV, ritonavir], for which the EC90 is 0.05 µM in data set [5] and 0.01 µM in data set [6].

As to `CC(C)(C)NC(=O)[C@@H]1C[C@@H]2CCCC[C@@H]2CN1C[C@@H](O)[C@H](Cc1ccccc1)NC(=O)[C@H](CC(N)=O)NC(=O)c1ccc2ccccc2n1` [SQV, saquinavir], the EC90 in data set [5] is 0.03 µM; in data set [6] it was 0.01 µM.

Consider pepstatin A, for which, in data set [3] (E. coli cells coexpressing TF-PR^WT and β-Gal^PR), the “inhibition of β-galactosidase activity (so in the source)” value is “did not inhibit”. Moreover, in data set [3] (E. coli cells, inferred from lack of inhibition), the cell permeability entry was “low cell permeability”. Also, in data set [3] (up to 5 mM), the “inhibitory effects in the assay procedures described herein” value was “failed to exert any inhibitory effects”.
